Measurements from patent US11866430B2, “Naphthyridinone compounds useful as T cell activators” (priority 2018, dated 2024).
Like-named read-outs stand apart in the source and are kept apart here.

Key:
[1] = tested on: Jurkat AP1-luciferase Reporter; experiment: DGK AP1-Reporter Assay; type: cell-based
Method: The Jurkat AP1-luciferase Reporter was generated using the Cignal Lenti AP1 Reporter (luc) Kit from SABiosciences (CLS-011L).
The sample size was 30 nl per well; and one destination plate per source plate. The cell suspensions were prepared by transferring 40 mL cells (2×20 mL) to clean 50 mL conical tubes. The cells were concentrated by centrifugation (1200 rpm; 5 mins; ambient temperature). […] The cell plates were incubated for 20 minutes at 37° C., and 5% CO2.
During the incubation, anti-CD3 antibody (αCD3) solutions were prepared by mixing 3 μl αCD3 (1.3 mg/mL) with 10 mL medium [final conc=0.4 μg/mL]. Next, 1.5 μl αCD3 (1.3 mg/mL) was mixed with 0.5 mL medium [final conc=4 μg/mL]. After 20 minutes, 10 μl medium was added to all wells in column 1, wells A to M, and 10 μl αCD3 (4 μg/mL) per well was added in column 1, rows N to P for reference. Then using a multi-channel pipette, 10 μl αCD3 (0.4 μg/mL) per well was added. The αCD3 stimulated +/− compound-treated cells were incubated at 37° C., 5% CO2 for 6 hours.
During this incubation period. Steady-Glo (Promega E2520) reagent was slowly thawed on to ambient temperature. Next, 20 μl Steady-Glo reagent per well was added using a multi-drop Combi-dispenser. Bubbles were removed by centrifugation (2000 rpm, ambient temperature, 10 sees). The cells were incubated at room temperature for 5 minutes. Samples were characterized by measuring the Relative Light Units (RLU) with an using Envision Plate Reader Instrument on a luminescence protocol.

human DGKα [2] = molecular target: T1, human DGKα (Homo sapiens (Human), UniProt P23743); experiment: biochemical
How it was run: (§1)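 Full-length human DGKα or DGKζ (C-terminal His tag, Sf9-expressed; 20 nM 4× stock) was preincubated 10 min at room temperature with PS/DAG octyl glucoside micelles in MOPS pH 7.5 buffer with MgCl2, CaCl2 and DTT. It was then started with ATP (300 uM addition) and run for 1 hr, with ADP-Glo luminescence read-out.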

naïve human CD8 T cells [3] = experiment: CellTiter-Glo CD8 T Cell Proliferation Assay; type: cell-based; details: Homo sapiens, T-cell
Method: Frozen naïve human CD8 T cells were thawed in RPMI+10% FBS, incubated for 2 h in 37° C., and counted. The 384-well tissue culture plate was coated overnight at 4° C. with 20 μl anti-human CD3 at 0.1 μg/mL in plain RPMI, which was removed off the plate before 20 k/40 μl CD8 T cells with 0.5 μg/mL soluble anti-human CD28 were added to each well. The compounds were echoed to the cell plate immediately after the cells were plated. After 72 h incubation at 37° C. incubator, 10 μl CellTiter-glo reagent (Promega catalog number G7570) was added to each well. The plate was vigorously shaken for 5 mins, incubated at room temperature for another 15 mins and read on Envision for CD8 T cell proliferation. In analysis, 0.1 μg/mL anti-CD3 and 0.5 μg/mL anti-CD28 stimulated CD8 T cell signal was background.

human DGKζ [4] = molecular target: T2, human DGKζ (Homo sapiens (Human), UniProt Q13574); experiment: DGKζ assay (detergent/lipid micelle substrate); type: biochemical; details: detergent/lipid micelle substrate; read-out: DGKζ IC50
How it was run: as §1

human DGKζ [5] = molecular target: T2, human DGKζ; experiment: DGKζ LIPGLO assay (extruded liposome substrate); type: biochemical; details: extruded liposome substrate; read-out: DGKζ LIPGLO IC50
How it was run: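 Sf9-derived DGKζ was premixed 10 min with PC/DAG/PS liposomes (100 nm extruded) in MOPS pH 7.5 buffer containing NaCl, MgCl2, CaCl2 and DTT.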

human DGKα [6] = molecular target: T1, human DGKα; experiment: DGKα LIPGLO assay (extruded liposome substrate); type: biochemical
How it was run: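 Human full-length DGKα, His-tagged and produced in Sf9 cells, assayed at 20 nM (4× stock) on extruded liposomes of PS, 0.25 mM DAG and 2.75 mM PC, preincubated 10 min. Reaction started with 300 μM ATP (stock) and ran 1 h in MOPS pH 7.5/MgCl2/CaCl2/DTT buffer.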

[7] = tested on: OT-1 antigen-specific CD8+ T cells with MC38 tumor cells; experiment: Murine Cytotoxic T Lymphocyte Assay (IFN-γ); type: cell-based, mouse
Text: An antigen-specific cytolytic T-cell (CTL) assay was developed to evaluate functionally the ability of DGKα and DGKζ inhibitors to enhance effector T cell mediated tumor cell killing activity. CD8+ T-cells isolated from the OT-1 transgenic mouse recognize antigen presenting cells, MC38, that present the ovalbumin derived peptide […]. Recognition of the cognate antigen initiates the cytolytic activity of the OT-1 antigen-specific CD8+ T cells.
Functional CTL cells were generated as follows: OT-1 splenocytes from 8-12 week old mice were isolated and expanded in the presence of the […] peptide at 1 μg/mL and mIL2 at 10 U/mL. After three days, fresh media with mIL2 U/mL was added. On day 5 of the expansion, the CD8+ T cells were isolated and ready for use. Activated CTL cells may be stored frozen for 6 months. […] The cells were washed (3×) with fresh media to remove excess peptide. Finally, CTL cells that were pretreated with DGK inhibitors for 1 hour in a 96-well U bottom plate were combined with the antigen loaded MC38 tumor cells at a 1:10 ratio. The cells were then spun at 700 rpm for 5 min and placed in an incubator overnight at 37° C. After 24 hours, the supernatant was collected for analysis of IFN-γ cytokine levels by AlphaLisa purchased from Perkin Elmer.

[8] = tested on: pre-activated CD4 T cells and Raji cells; experiment: Raji CD4 T Cell IL2 Assay; type: cell-based; details: Homo sapiens, Raji
naïve human CD8 T cells [9] = experiment: cells; details: Homo sapiens, T-cell, read-out: HuCD8 INFG Normalized EC50, anti-CD3 plus anti-CD28 as baseline; 3 μM Example 40 co-stimulation as 100% activation
Method: Frozen naïve human CD8 T cells were thawed in ATM-V media, incubated for 2 h in 37° C., and counted. The 384-well tissue culture plate was coated overnight at 4° C. with 20 μl anti-human CD3 at 0.05 μg/mL in PBS, which was removed off the plate before 40,000 cells per 40 microliters CD8 T cells with 0.1 μg/mL soluble anti-human CD28 were added to each well. The compounds were transferred using an Echo liquid handler to the cell plate immediately after the cells were plated. After 20 h incubation at 37° C. incubator, 3 microliters per well supernatants transferred into a new 384-well white assay plate for cytokine measurement.
Interferon-γ (IFN-γ) was quantitated using the AlphaLISA kit (Cat #AL217) as described by the manufacturer manual (Perkin Elmer). The counts from each well were converted to IFN-γ concentration […].

[10] = Homo sapiens, Jurkat, read-out: API-Luciferase Reporter IC50, Table 3
[11] = detergent/lipid micelle substrate, read-out: DGKα IC50
[12] = Homo sapiens, Jurkat, read-out: DGKAP1 Lucif Reporter IC50, Table 4
[13] = DGKα IC50, detergent/lipid micelle substrate
[14] = CellTiter-Glo CD8 T cell proliferation, normalized, read-out: CD8 GLO normalized EC50
[15] = read-out: API-Luciferase Reporter IC50, Table 3
[16] = read-out: msCTL INF-γ IC50, murine CTL IFN-γ (table title reads INF-γ Whole Blood Normalized Agonist EC50)
[17] = Mus musculus, MC-38, read-out: msCTL INF-γ IC50, murine CTL IFN-γ (table title reads INF-γ Whole Blood Normalized Agonist EC50)

T1 sequence (P23743 other isoform, or with tags, fused parts or gaps): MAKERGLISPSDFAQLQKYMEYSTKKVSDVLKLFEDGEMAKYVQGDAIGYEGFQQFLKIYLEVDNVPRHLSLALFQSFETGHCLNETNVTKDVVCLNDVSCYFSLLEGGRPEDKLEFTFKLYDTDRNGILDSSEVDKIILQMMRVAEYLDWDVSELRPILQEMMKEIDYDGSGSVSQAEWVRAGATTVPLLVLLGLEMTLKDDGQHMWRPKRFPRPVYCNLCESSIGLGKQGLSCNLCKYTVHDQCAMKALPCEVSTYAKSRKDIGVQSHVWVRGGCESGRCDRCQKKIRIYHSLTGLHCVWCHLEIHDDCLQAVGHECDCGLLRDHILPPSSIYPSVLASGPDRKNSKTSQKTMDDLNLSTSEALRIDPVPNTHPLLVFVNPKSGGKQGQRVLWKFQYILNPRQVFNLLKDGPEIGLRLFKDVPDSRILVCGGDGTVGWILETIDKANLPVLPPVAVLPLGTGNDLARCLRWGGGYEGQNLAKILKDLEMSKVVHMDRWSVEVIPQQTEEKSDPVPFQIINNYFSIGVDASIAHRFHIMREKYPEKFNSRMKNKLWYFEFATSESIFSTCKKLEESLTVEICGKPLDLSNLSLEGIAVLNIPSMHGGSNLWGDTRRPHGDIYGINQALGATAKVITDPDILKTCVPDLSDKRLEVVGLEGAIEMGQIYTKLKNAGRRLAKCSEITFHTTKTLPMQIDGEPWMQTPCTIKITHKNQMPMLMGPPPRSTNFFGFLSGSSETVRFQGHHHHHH
T2 sequence (Q13574 other isoform, or with tags, fused parts or gaps): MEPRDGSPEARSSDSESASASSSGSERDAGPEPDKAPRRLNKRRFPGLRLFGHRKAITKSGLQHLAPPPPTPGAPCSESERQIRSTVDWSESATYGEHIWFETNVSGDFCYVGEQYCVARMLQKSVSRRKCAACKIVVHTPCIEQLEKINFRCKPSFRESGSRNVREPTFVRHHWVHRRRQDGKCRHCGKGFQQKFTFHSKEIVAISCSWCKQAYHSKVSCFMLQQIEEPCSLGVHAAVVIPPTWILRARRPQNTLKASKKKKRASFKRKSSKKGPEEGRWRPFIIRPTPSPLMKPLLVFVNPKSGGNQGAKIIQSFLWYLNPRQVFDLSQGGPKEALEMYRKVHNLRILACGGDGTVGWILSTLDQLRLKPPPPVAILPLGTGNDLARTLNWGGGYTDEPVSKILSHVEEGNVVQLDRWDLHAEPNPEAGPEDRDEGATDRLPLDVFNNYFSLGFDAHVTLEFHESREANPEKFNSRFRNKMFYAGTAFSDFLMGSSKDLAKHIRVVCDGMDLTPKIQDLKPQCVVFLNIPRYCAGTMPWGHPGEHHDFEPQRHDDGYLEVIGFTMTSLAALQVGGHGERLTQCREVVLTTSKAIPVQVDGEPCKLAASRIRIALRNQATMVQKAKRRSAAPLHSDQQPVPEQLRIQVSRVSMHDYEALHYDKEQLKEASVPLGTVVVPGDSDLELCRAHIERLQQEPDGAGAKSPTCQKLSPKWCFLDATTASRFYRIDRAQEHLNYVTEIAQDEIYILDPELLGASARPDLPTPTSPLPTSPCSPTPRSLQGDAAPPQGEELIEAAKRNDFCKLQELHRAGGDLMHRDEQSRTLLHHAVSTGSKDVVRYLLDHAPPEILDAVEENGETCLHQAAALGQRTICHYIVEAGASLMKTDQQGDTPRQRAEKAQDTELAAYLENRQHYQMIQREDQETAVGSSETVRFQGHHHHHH

**Q.** What does the source list for `CCC(c1ccc(F)cc1)N1CCN(c2c([N+](=O)[O-])c(=O)n(C)c3ccc(C#N)nc23)CC1` (racemic) [Example 32, 8-{4-[1-(4-fluorophenyl)propyl]piperazin-1-yl}-5-methyl-7-nitro-6-oxo-5,6-dihydro-1,5-naphthyridine-2-carbonitrile]?
**A.** IC50 [1, 10]: 360 nM; IC50 (human DGKα [2]; [11]): 190 nM; EC50 (naïve human CD8 T cells [3]; read-out: CD8 GLO normalized EC50, CellTiter-Glo CD8 T cell proliferation, normalized): 180 nM; IC50 (human DGKζ [4]): 9400 nM

**Q.** Which results are given for `Cn1c(=O)c([N+](=O)[O-])c(N2CCN(C(c3ccc(F)cc3)C3CC3)CC2)c2nc(C#N)ccc21` (racemic) [Example 49, 8-(4-(cyclopropyl(4-fluorophenyl)methyl)piperazin-1-yl)-5-methyl-7-nitro-6-oxo-5,6-dihydro-1,5-naphthyridine-2-carbonitrile]?
**A.** IC50 [1, 12]: 1700 nM; IC50 (human DGKα [2]; [13]): 180 nM; EC50 (naïve human CD8 T cells [3]; [14]): 170 nM; IC50 (human DGKζ [4]): > 240000 nM

**Q.** With `C#CCn1c(=O)c([N+](=O)[O-])c(N2CCN(C(c3ccc(F)cc3)c3ccccc3OC)CC2)c2nc(C#N)ccc21` (racemic) [Example 129, 8-(4-((4-fluorophenyl)(2-methoxyphenyl)methyl)piperazin-1-yl)-7-nitro-6-oxo-5-(prop-2-yn-1-yl)-5,6-dihydro-1,5-naphthyridine-2-carbonitrile] as the compound, how does the IC50 [1, 12] read?
**A.** 870 nM

**Q.** What about the IC50 (human DGKα [2]; [11]) of the same compound?
**A.** 4200 nM

**Q.** What about the EC50 (naïve human CD8 T cells [3]; [14]) of the same compound?
**A.** 60 nM

**Q.** What about the IC50 (human DGKζ [4]) of the same compound?
**A.** 180 nM

**Q.** What does the source list for `COc1cc(F)ccc1C(c1ccc(F)cc1)N1CCN(c2c(C#N)c(=O)n(C)c3ccc(C#N)nc23)CC1` (racemic) [Example 405, 8-{4-[(4-fluoro-2-methoxyphenyl)(4-fluorophenyl)methyl]piperazin-1-yl}-5-methy-6-oxo-5,6-dihydro-L5-naphthyridine-2,7-dicarbonitrile]?
**A.** IC50 (human DGKζ [5]): 860 nM; EC50 (naïve human CD8 T cells [3]; [14]): 20 nM; IC50 (human DGKα [6]): 560 nM

**Q.** What does the source list for `C#CCn1c(=O)c([N+](=O)[O-])c(N2CCN(C(c3ccc(F)cc3)c3ccccc3O)CC2)c2nc(C#N)ccc21` (single isomer, unassigned) [Example 133, 8-(4-((4-fluorophenyl)(2-hydroxyphenyl)methyl)piperazin-1-yl)-7-nitro-6-oxo-5-(prop-2-yn-1-yl)-5,6-dihydro-1,5-naphthyridine-2-carbonitrile]?
**A.** IC50 [1, 15]: 280 nM; IC50 (human DGKα [2]; [13]): 3300 nM; IC50 (human DGKζ [4]): 140 nM; IC50 [7, 16]: 60 nM

**Q.** With `C#CCn1c(=O)c([N+](=O)[O-])c(N2CCN(C(c3ccc(F)cc3)c3ccccc3O)CC2)c2nc(C#N)ccc21` (single isomer, unassigned) [Example 134, 8-(4-((4-fluorophenyl)(2-hydroxyphenyl)methyl)piperazin-1-yl)-7-nitro-6-oxo-5-(prop-2-yn-1-yl)-5,6-dihydro-1,5-naphthyridine-2-carbonitrile] as the compound, how does the IC50 [1, 15] read?
**A.** 600 nM

**Q.** What about the IC50 (human DGKα [2]; [11]) of the same compound?
**A.** 31000 nM

**Q.** And the IC50 (human DGKζ [4])?
**A.** 4200 nM

**Q.** What about the IC50 [7, 16] of the same compound?
**A.** 1140 nM

**Q.** With `Cn1c(=O)c(C#N)c(N2CCN(Cc3ccc(O)cc3)CC2)c2nc(Cl)ccc21` [Example 362, 6-chloro-4-{4-[(4-hydroxyphenyl)methyl]piperazin-1-yl}-1-methyl-2-oxo-1,2-dihydro-1,5-naphthyridine-3-carbonitrile] as the compound, how does the IC50 [8] read?
**A.** > 100000 nM

**Q.** What about the IC50 [1, 10] of the same compound?
**A.** 8370 nM

**Q.** What about the IC50 (human DGKα [2]; [11]) of the same compound?
**A.** 69 nM

**Q.** What about the IC50 (human DGKζ [4]) of the same compound?
**A.** > 240000 nM

**Q.** And the IC50 [7, 17]?
**A.** 10000 nM

**Q.** Which results are given for `Cc1cccc(CN2CCN(c3c(C#N)c(=O)n(C)c4ccc(Cl)nc34)CC2)c1` [Example 385, 6-chloro-1-methyl-1-{4-4[(3-methylphenyl)methyl]piperazin-1-yl}-2-oxo-1,2-dihydro-1,5-naphthyridine-3-carbonitrile]?
**A.** IC50 [1, 10]: 60 nM; IC50 (human DGKα [2]; [11]): 350 nM; IC50 (human DGKζ [4]): 150000 nM; IC50 [7, 17]: 4090 nM

**Q.** Which results are given for `CC(c1ccc(F)cc1)N1CCN(c2c(C#N)c(=O)n(C)c3ccc(Cl)nc23)CC1` (stereo not shown) [Example 387A, 6-chloro-4-{4-[1-(4-fluorophenyl)ethyl]piperazin-1-yl}-1-methyl-2-oxo-1,2-dihydro-1,5-naphthyridine-3-carbonitrile]?
**A.** IC50 [1, 12]: 10000 nM; EC50 (naïve human CD8 T cells [3]; [14]): 10000 nM

**Q.** How did the EC50 (naïve human CD8 T cells [9]) turn out when `COc1cc(F)ccc1C(c1ccc(F)cc1)N1CCN(c2cc(=O)n(C)c3ccc(C#N)nc23)CC1` (stereo not shown) [Example 392, 8-{4-[(4-fluoro-2-methoxyphenyl)(4-fluorophenyl)methyl]piperazin-1-yl}-5-methyl-6-oxo-5,6-dihydro-1,5-naphthyridine-2-carbonitrile] was run?
**A.** 230 nM

**Q.** And the IC50 (human DGKζ [5])?
**A.** 2300 nM

**Q.** And the IC50 (human DGKα [6])?
**A.** > 240000 nM

**Q.** What about the IC50 [7, 17] of the same compound?
**A.** 1850 nM

**Q.** For `Cn1c(=O)c([N+](=O)[O-])c(N2CCN([C@@H](c3ccccc3)c3ccc(Cl)cc3)CC2)c2nc(C#N)ccc21` [Example 399, 8-{4-[(S)-(4-chlorophenyl)(phenyl)methyl]piperazin-1-yl}-5-methyl-7-nitro-6-oxo-5,6-dihydro-1,5-naphthyridine-2-carbonitrile], which EC50 (naïve human CD8 T cells [9]) is on record?
**A.** 20 nM

**Q.** What about the IC50 (human DGKζ [5]) of the same compound?
**A.** 160 nM

**Q.** And the IC50 (human DGKα [6])?
**A.** 6400 nM

**Q.** What about the IC50 [7, 17] of the same compound?
**A.** 410 nM

**Q.** What does the source list for `Cn1c(=O)c(C#N)c(N2CCN([C@@H](c3ccccc3)c3ccc(Cl)cc3)CC2)c2nc(Br)ccc21` [Example 428, 6-bromo-4-{4-[(S)-(4-chlorophenyl)(phenyl)methyl]piperazin-1-yl}-1-methyl-2-oxo-1,2-dihydro-1,5-naphthyridine-3-carbonitrile]?
**A.** EC50 (naïve human CD8 T cells [9]): 30 nM; IC50 (human DGKζ [5]): 5200 nM; IC50 (human DGKα [6]): 10000 nM; IC50 [7, 17]: 590 nM
